Measured values published in patent US5861426A, “Nitro compounds of the formula A-Xi -NO2 and their compositions having anti-inflammatory, analgesic and anti-thrombotic activities” (Nicox S.A., priority 1994, dated 1999).
Like-named read-outs stand apart in the source and are kept apart here.

Tests used:
Swiss mice = assay: Analgesic activity (Hendershot et al.); type: in vivo; details: oral 3 to 30 mg/Kg in carboxymethylcellulose, natural product = 1.0
Experimental: (§6) Study of the anti-inflammatory (I) and analgesic (II) properties (pharmacodynamics) and gastrointestinal tolerance (III) (toxicity) of the test compounds after oral administration of doses ranging from 3 to 30 mg/Kg in carboxymethylcellulose suspensions and constructing dose-responsecurves. […] Activities are expressed as the potency ratio compared to the natural product used as a unit standard.

nitrosynthetase (NOS) = assay: Nitrosynthetase (NOS) activity induced by LPS in rats; type: in vivo, rat; details: oral, LPS only = 100
Experimental: The nitrosynthetase inhibition activity induced by lipopolysaccharide (LPS) was determined in rat neutrophils and stomach after administration of one of the test compounds and compared with that obtained after treatment of the suspension vehicle only.
In brief, Wistar rats fasting for 24 hours before treatment were orally administered the test product (10 mg/Kg) and intravenously (caudal vein) administered LPS (5 mg/Kg).
Four hours later the animals were sacrificed and the blood--for neutrophils isolation--and the stomach taken.
Enzyme activity was determined in accordance with the method described by Assreuy et al. (Br. J. Pharmacol. 108, 833, 1993).
Study of the inhibitory properties of the nitrosynthetase (NOS) activity induced by liposaccharide (LPS) in rats using oral doses ranging from 5 to 20 mg/Kg suspended in a carboxymethylcellulose base.

[1] = tested on: human platelets stimulated by thrombin; assay: Platelet anti-aggregating activity in vitro; type: cell-based; details: 10^-5 to 10^-7 molar range, natural product = 1.0
Description: (§1) Example of the anti-cyclooxygenase (I), platelet anti-aggregating (II) and vasodilative (III) properties of the test compounds tested in vitro at concentrations in the molar range from 10^-5 to 10^-7 of the product in water/alcohol with the addition of small amounts of DMSO (dimethylsulphoxide). The activities are expressed as the potency ratio versus the natural product used as a unit standard, as stated in Table

carrageenin-oedema = assay: Anti-inflammatory activity, carrageenin-oedema method; type: in vivo; details: rats, oral 3 to 30 mg/Kg in carboxymethylcellulose; natural product = 1.0
Experimental: as §6

COX-1 = target: T1, COX-1 (Bos taurus, UniProt O62664); assay: COX-1 inhibition in isolated cells; type: cell-based, bovine; details: read-out: COX-1 response, % of the controls with response variability
T1 construct: Endothelial cells of bovine aorta were used as a source of COX-1; endogenous in cells; host or cells: bovine aortic endothelial cells
T1 sequence (O62664 25-600): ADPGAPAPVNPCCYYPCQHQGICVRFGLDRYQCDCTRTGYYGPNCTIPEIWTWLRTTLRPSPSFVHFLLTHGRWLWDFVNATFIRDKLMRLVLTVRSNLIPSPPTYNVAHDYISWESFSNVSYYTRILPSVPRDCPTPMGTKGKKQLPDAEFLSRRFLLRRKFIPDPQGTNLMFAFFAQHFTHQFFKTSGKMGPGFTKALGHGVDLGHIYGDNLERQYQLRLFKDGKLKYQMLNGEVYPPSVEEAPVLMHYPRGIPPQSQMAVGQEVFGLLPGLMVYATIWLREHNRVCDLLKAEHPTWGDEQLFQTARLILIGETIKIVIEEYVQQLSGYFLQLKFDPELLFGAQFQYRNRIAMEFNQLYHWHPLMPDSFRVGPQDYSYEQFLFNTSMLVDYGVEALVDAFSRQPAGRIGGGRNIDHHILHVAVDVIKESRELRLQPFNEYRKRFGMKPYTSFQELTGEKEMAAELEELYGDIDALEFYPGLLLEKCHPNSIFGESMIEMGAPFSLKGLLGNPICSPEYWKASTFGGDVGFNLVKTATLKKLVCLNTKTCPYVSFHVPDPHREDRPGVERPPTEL
Experimental: (§2) The activity inhibiting cyclo-oxygenase was determined in isolated cells. Endothelial cells of bovine aorta were used as a source of COX-1 and macrophage line J774.2 as a source of COX-2. The same conditions described by Mitchell et al. (Proc. Nat. Acad. Sci. 90, 11693, 1993) for growth and the viability test were used.
(§3) In brief, the cells were incubated for 30 minutes with scalar concentrations of the test product and the substrate (arachidonic acid) was then added and incubated for another 15 minutes. Enzyme activity was determined radioimmunologically by measuring the formation of 6-keto-PGF 1 alpha. In the case of cell lines J.774.2, the cells were incubated for 12 hours with endotoxin to promote COX-2 formation.
(§4) Study of the anti-cyclooxygenase (COX-1/COX-2) properties in isolated cells.
(§5) Response expressed as a % of the controls with relative response variability.

cyclo-oxygenase = assay: Anti-cyclooxygenase activity; type: cell-based
Experimental: as §2, §3, §1

isolated rat aorta = assay: Vasodilative activity, inhibition of contraction induced by epinephrine; details: in vitro, 10^-5 to 10^-7 molar range
Description: as §1

gastropathy = assay: Gastric tolerance, severity of induced gastropathy; details: rats, oral 3 to 30 mg/Kg in carboxymethylcellulose; natural product = 1.0
Experimental: Gastric tolerance was measured by oral administration to rats assessing the severity of the gastropathy induced in accordance with the criteria described by Wallace et al. (Am. J. Physiol. 259, G642, 1990).
Study of the anti-inflammatory (I) and analgesic (II) properties (pharmacodynamics) and gastrointestinal tolerance (III) (toxicity) of the test compounds after oral administration of doses ranging from 3 to 30 mg/Kg in carboxymethylcellulose suspensions and constructing dose-responsecurves.
Activities are expressed as the potency ratio compared to the natural product used as a unit standard. The nitroderivative is that of the shown examples, the natural reference compound is that shown as a reference.

COX-2 = target: T2, COX-2 (Mus musculus, UniProt Q05769); assay: COX-2 inhibition in isolated cells; type: cell-based
T2 construct: endogenous in cells; host or cells: J774.2 macrophages, 12 h with endotoxin
T2 sequence (Q05769 18-604): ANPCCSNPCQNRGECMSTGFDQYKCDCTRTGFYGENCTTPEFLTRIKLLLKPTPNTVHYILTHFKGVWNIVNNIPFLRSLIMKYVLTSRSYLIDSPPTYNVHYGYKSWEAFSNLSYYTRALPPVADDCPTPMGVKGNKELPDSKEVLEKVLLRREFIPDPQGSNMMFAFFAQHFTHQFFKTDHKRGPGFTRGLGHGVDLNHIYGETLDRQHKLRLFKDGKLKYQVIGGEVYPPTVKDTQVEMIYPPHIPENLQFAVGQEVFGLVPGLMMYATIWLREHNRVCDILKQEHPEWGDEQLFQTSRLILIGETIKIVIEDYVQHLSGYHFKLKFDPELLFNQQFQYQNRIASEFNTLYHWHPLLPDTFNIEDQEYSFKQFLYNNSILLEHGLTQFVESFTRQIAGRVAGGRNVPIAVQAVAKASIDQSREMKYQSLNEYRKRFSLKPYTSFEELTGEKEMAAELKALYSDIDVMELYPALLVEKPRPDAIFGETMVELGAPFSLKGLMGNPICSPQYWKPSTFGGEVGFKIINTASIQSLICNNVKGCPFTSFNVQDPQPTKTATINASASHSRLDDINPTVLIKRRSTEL
Experimental: as §2, §3, §4, §5

gastric mucous membrane = assay: Gastric irritation of Tween 80 / dimethylsulphoxide suspensions; type: in vivo; details: suspension with Tween 80 and dimethylsulphoxide (0.1% and 1% for nitroxybutylflurbiprofen; lower amounts for NO-flurbiprofen derivative)
[2] = J774.2, read-out: COX-2 response, % of the controls with response variability

## O=C(Cc1ccccc1Nc1c(Cl)cccc1Cl)OCCOCCO[N+](=O)[O-] [Example 1b, 2-{N-[2,6-(dichloro)phenyl]amino}phenylacetate of 2-[2-(nitroxy)ethoxy]ethyl]
Swiss mice
  analgesic properties (II), potency ratio versus natural reference product: 0.9
Nitrosynthetase (NOS); neutrophils
  NOS, neutrophils; inhibition relative to the group treated with LPS only: 52
Nitrosynthetase (NOS); stomach
  NOS, stomach; inhibition relative to the group treated with LPS only: 40
[1]
  platelet anti-aggregating (II), potency ratio versus natural product: 1.8
carrageenin-oedema
  anti-inflammatory properties (I), potency ratio versus natural reference product: 1.3
COX-1; 0.1 mg/ml, endothelial cells of bovine aorta
  remaining activity at 100 µg/mL: 49 ± 6%
COX-1; 1.0 mg/ml, endothelial cells of bovine aorta
  remaining activity at 1000 µg/mL: 29 ± 4%
cyclo-oxygenase; Table 4 data
  direct inhibition of cyclo-oxygenase COX-1 and COX-2: capable of directly inhibiting cyclo-oxygenase COX-1 and COX-2
cyclo-oxygenase; in vitro, 10^-5 to 10^-7 molar range, natural product = 1.0
  anti-cyclooxygenase (I), potency ratio versus natural product: 1.8
Isolated rat aorta
  vasodilative (III), % of inhibitory action of the vasospasm induced by epinephrine: 50%
gastropathy
  gastrointestinal tolerance (III) (toxicity), potency ratio versus natural reference product: 0.3
COX-2; 0.1 mg/ml, macrophage line J774.2 with endotoxin, read-out: COX-2 response, % of the controls with response variability
  remaining activity at 100 µg/mL: 45 ± 3%
COX-2; 1.0 mg/ml, macrophage line J774.2 with endotoxin, read-out: COX-2 response, % of the controls with response variability
  remaining activity at 1000 µg/mL: 22 ± 4%

## CC(C(=O)OCCCCO[N+](=O)[O-])c1ccc(-c2ccccc2)c(F)c1 (stereo not drawn) [FLURBIPROFEN NITROXYBUTYLESTER]
COX-1
  remaining activity at 100 µg/mL: 48 ± 18%
  remaining activity at 1000 µg/mL: 29 ± 13%
Gastric mucous membrane
  irritant effect on gastric mucous membrane: irritant to the gastric mucous membrane
COX-2; [2]
  remaining activity at 100 µg/mL: 46 ± 23%
  remaining activity at 1000 µg/mL: 22 ± 14%
